Test results from patent publication US20240132518A1, “CEPHALOSPORIN ANTIBACTERIAL COMPOUND AND PREPARATION METHOD THEREFOR” (priority 2021, published 2024).
≈ marks a conversion by molar mass, not a printed value. Like-named read-outs stand apart in the source and are kept apart here.

Legend:
[1] = test system: Carbapenem-resistant Acinetobacter baumannii (CRAB); assay: Antibacterial MIC assay (ID-CAMHB), carbapenem-resistant Acinetobacter baumannii; format: cell-based
Procedure: (§1) 1. The test compounds were dissolved in sterile normal saline, vortexed for uniformly mixing, and diluted in a 2-fold dilution with the sterile normal saline (11 concentration points in total). The test concentration range was 32-0.031 μg/mL, and two duplicate wells were set for each concentration. Additional wells without drug dosing were set as growth controls.
(§2) 2. 4 μL of the diluent was added to 196 μL of the bacterial suspension in a 96-well plate (the bacterial count in the bacterial suspension was 2-8×10^5 colony forming units/mL).
(§3) The minimum inhibitory concentration (MIC) assay was performed with reference to the Clinical and Laboratory Standards Institute (CLSI) guidelines.

[2] = test system: Carbapenem-resistant Enterobacteriaceae (CRE, Klebsiella pneumoniae); assay: Antibacterial MIC assay (ID-CAMHB), carbapenem-resistant Enterobacteriaceae; format: cell-based
Procedure: as §1, §2, §3

[3] = test system: Carbapenem-resistant Pseudomonas aeruginosa (CRPA); assay: Antibacterial MIC assay (ID-CAMHB), carbapenem-resistant Pseudomonas aeruginosa; format: cell-based
Procedure: as §1, §2, §3

[4] = test system: Control strain (Escherichia coli) ATCC 25922; assay: Antibacterial MIC assay (ID-CAMHB), control strain Escherichia coli; format: cell-based; conditions: ATCC25922, ID-CAMHB, control strain ATCC 25922, read-out: MIC
Procedure: as §1, §2, §3

[5] = test system: Control strain (Pseudomonas aeruginosa) ATCC 27853; assay: Antibacterial MIC assay (ID-CAMHB), control strain Pseudomonas aeruginosa; format: cell-based; conditions: ATCC27853, ID-CAMHB, control strain ATCC 27853, read-out: MIC
Procedure: as §1, §2, §3

[6] = Pharmacokinetic study in cynomolgus monkeys; format: in vivo; conditions: cynomolgus monkey, plasma, 10 mg/kg single intravenous infusion, individual animals
Procedure: An appropriate amount of a test compound was weighed precisely and added to a container, and 0.9% sodium chloride injection and 0.2 M NaOH solution were added thereto in an ice bath until the test compound was completely dissolved, so that a sample solution at a concentration of 2 mg/mL was obtained followed by storage at 2-8° C. for later use.
• Species and strain: cynomolgus monkey • Animal grade: general grade • Animal source: Guangxi Xiongsen Primate Experimental Animal Breeding Development Co., Ltd. • Number of the using of laboratory animal: SYXK (Su) 2019-0012
6 cynomolgus monkeys (half male and half female) were selected and randomly divided into 3 groups with 1 animal/sex in each group. The cynomolgus monkeys were administered with the test sample at a dose of 10 mg/kg by the single intravenous infusion. Blood samples were collected from each group of animals at the following time points: before administration, and 5 min, 15 min, 0.5 h, 1 h, 2 h, 4 h, 6 h, and 8 h after administration. In the test, the concentration of each test compound in the plasma of the cynomolgus monkey was detected by the LC-MS/MS method, and the lower limits of quantification of the analysis methods for the plasma samples were all 1 μg/mL. The plasma concentration data were analyzed by the non-compartmental analysis (NCA) of the analysis software for pharmacokinetic data, WinNonlin, pharmacokinetic parameters were calculated, and pharmacokinetic characteristics of the test compounds in cynomolgus monkeys after administration were investigated, with the results shown in the following table.

[7] = Pharmacokinetic study in ICR mice; format: in vivo; conditions: plasma; for AUC(0-inf) / AUC(0-t) / Cmax / Tmax / half-life: both sexes, mouse, sc
Procedure: The formulation for administration was prepared on ice. A proper amount of the test compound was precisely weighed out, and a 90% volume of normal saline was slowly added. The mixture was ultrasonically stirred in an ice-water bath until no large pieces existed. After the mixture was well mixed, a 1 M NaOH solution was added in small portions using a pipette.
• Species and strain: ICR mice • Animal grade: SPF • Animal source: Medicilon: 999M-018
Administration by subcutaneous injection: 3 mice/sex/time point; blood samples were collected at 9 time points: 0.083 h, 0.25 h, 0.5 h, 1 h, 2 h, 4 h, 6 h, 8 h and 24 h after administration. The collected blood samples were placed in EDTA-K2 anticoagulation blood collection tubes. The collected whole blood was placed on ice and centrifuged at 6800 g at 2-8° C. for 6 min to separate plasma within 1 h. After the centrifugation, the plasma was transferred to a centrifuge tube to which a plasma stabilizer had been added in advance (plasma:concentrated phosphoric acid=100:0.2; for example, 1 μL of 10% concentrated phosphoric acid was added to 50 μL of plasma). All the animals were subjected to careful clinical observation before administration and at each of the blood collection time points after administration, and the adverse reaction symptoms in the animals were recorded.

[8] = both sexes, cynomolgus, iv, 10 mg/kg
[9] = 10 mg/kg subcutaneous injection
[10] = 100 mg/kg subcutaneous injection

With `CC(C)(O/N=C(\C(=O)N[C@@H]1C(=O)N2C(C(=O)[O-])=C(C[N+]3(CCCN(CCCNC(=O)c4ccc(O)c(O)c4Cl)C(=O)c4ccc(O)c(O)c4Cl)CCCC3)CS[C@H]12)c1csc(N)n1)C(=O)O` [Compound 3] the MIC ([1]; strain FDA-CDC AR-BANK#0036, AMR gene strB, OXA-65, OXA-24, strA, sul2, read-out: MIC) was 0.25 µg/mL (≈ 0.252 µM), the MIC ([1]; strain FDA-CDC AR-BANK#0052, AMR gene OXA-58, OXA-100, sul2) was 0.125 µg/mL (≈ 0.126 µM) and the MIC ([1]; strain FDA-CDC AR-BANK#0063, AMR gene OXA-23, OXA-65, OXA-24, sul2, read-out: MIC) was greater than 32 µg/mL. It also gave an MIC ([1]; strain FDA-CDC AR-BANK#0070, AMR gene OXA-58, OXA-100, sul2) of 0.125 µg/mL (≈ 0.126 µM), an MIC ([1]; strain FDA-CDC AR-BANK#0101, AMR gene strB, OXA-65, OXA-24, strA, sul2, read-out: MIC) of 0.5 µg/mL (≈ 0.503 µM) and an MIC ([2]; strain FDA-CDC AR-BANK#0361, AMR gene TEM-1, SHV-12, KPC-2) of 0.5 µg/mL (≈ 0.503 µM). The MIC ([2]; strain FDA-CDC AR-BANK#0362, AMR gene TEM-1, SHV-11, KPC-2) was 0.125 µg/mL (≈ 0.126 µM), the MIC ([2]; strain FDA-CDC AR-BANK#0363, AMR gene TEM-1, SHV-12, KPC-2) was 0.125 µg/mL (≈ 0.126 µM) and the MIC ([2]; strain FDA-CDC AR-BANK#0438, AMR gene aph(3′)-Ia, dfrA12, KPC-3, OmpK35, oqxA, oqxB, SHV-11) was 0.25 µg/mL (≈ 0.252 µM). It also gave an MIC ([2]; strain FDA-CDC AR-BANK#0453, AMR gene KPC-3, OmpK35, oqxA, oqxB, SHV-11, TEM-1B) of 0.5 µg/mL (≈ 0.503 µM), an MIC ([3]; strain FDA-CDC AR-BANK#0439, AMR gene aac(6′)-Il, aadA1b, BCR1, IMP-18, OXA-50) of 0.125 µg/mL (≈ 0.126 µM) and an MIC ([3]; strain FDA-CDC AR-BANK#0441, AMR gene KPC-2, read-out: MIC) of 2 µg/mL (≈ 2.01 µM). It also gave an MIC ([3]; strain FDA-CDC AR-BANK#0444, AMR gene aac(6′)-Il, dfrB5, OXA-4, tet(G), VIM-2, read-out: MIC) of 2 µg/mL (≈ 2.01 µM), an MIC ([3]; strain FDA-CDC AR-BANK#0457, AMR gene aadA6, VIM-2, read-out: MIC) of 0.25 µg/mL (≈ 0.252 µM) and an MIC [4] of 0.0625 µg/mL (≈ 0.0629 µM). It also gave an MIC [5] of 0.25 µg/mL (≈ 0.252 µM), an AUC(0-inf) [6, 8] of 166 µg·h/mL and an AUC(0-t) [6, 8] of 149 µg·h/mL. For the same compound, the clearance [6, 8] was 1 mL/min/kg, the half-life [6, 8] was 154 min and the Cmax ([6]; both sexes, cynomolgus, iv, 10 mg/kg, read-out: Cmax) was 55.2 µg/mL. It also gave an MRT ([6]; both sexes, cynomolgus, iv, 10 mg/kg, read-out: MRT) of 150 min, a Vd ([6]; both sexes, cynomolgus, iv, 10 mg/kg, read-out: Vd) of 0.223 L/kg and a Tmax ([6]; both sexes) of 4.8 min. The AUC last ([6]; 10 mg/kg) was 140.08 µg·h/mL, the AUCinf ([6]; 10 mg/kg) was 153.20 µg·h/mL and the CL ([6]; 10 mg/kg) was 1.088 mL/min/kg. It also gave a Cmax ([6]; 10 mg/kg) of 48.60 µg/mL, an MRT ([6]; 10 mg/kg) of 149 min and a Vd ([6]; 10 mg/kg) of 0.21311 L/kg. It also gave a t1/2 ([6]; 10 mg/kg) of 136 min, an AUMC0-inf [7, 9] of 86.9 h · h · ug · mL^−1 and an AUMC0-t [7, 9] of 80.3 h · h · ug · mL^−1. For the same compound, the Kel [7, 9] was 1.04 h⁻¹, the MRTPO [7, 9] was 47.4 min and the AUMC0-inf [7, 10] was 880.4 h · h · ug · mL^−1. For the same compound, the AUMC0-t [7, 10] was 871.4 h · h · ug · mL^−1, the Kel [7, 10] was 1.64 h⁻¹ and the MRTPO [7, 10] was 47.8 min. For the same compound, the AUC(0-inf) [7, 9] was 110 µg·h/mL, the AUC(0-t) [7, 9] was 109 µg·h/mL and the Cmax [7, 9] was 114 µg/mL. It also gave a Tmax [7, 9] of 15 min, a half-life [7, 9] of 39.9 min and an AUC(0-inf) [7, 10] of 1100 µg·h/mL. For the same compound, the AUC(0-t) [7, 10] was 1100 µg·h/mL, the Cmax [7, 10] was 936 µg/mL and the Tmax [7, 10] was 30 min. It also gave a half-life [7, 10] of 25.3 min.
